From patent US9060971B2, “Combination pharmaceutical agents as inhibitors of HCV replication” (Enanta Pharmaceuticals, Inc., priority 2010, dated 2015)

What was measured:
[1] = test system: "Huh-luc/neo-ET" HCV replicon; test: In vitro synergy assay, two drug combinations, luciferase, Bliss additivity; assay type: cell-based; details: 72 h
Description: The coding sequence of the published HCV replicon was synthesized and subsequently assembled in a modified plasmid pBR322 (Promega, Madison, Wis.) using standard molecular biology techniques. One replicon cell line (“SGR 11-7”) stably expresses HCV replicon RNA which consists of (i) the HCV 5′UTR fused to the first 12 amino acids of the capsid protein, (ii) the neomycin phosphotransferase gene (neo), (iii) the IRES from encephalomyocarditis virus (EMCV), and (iv) HCV NS2 to NS5B genes and the HCV 3′UTR. Another replicon cell line (“Huh-luc/neo-ET”) described by Vrolijk et. al. (Vrolijk et. al. (2003) Journal of Virological Methods 110:201-209, expressly incorporated by reference in its entirety) stably expresses HCV replicon RNA which consists of (i) the HCV 5′UTR fused to the first 12 amino acids of the capsid protein, (ii) the firefly luciferase reporter gene, (iii) the ubiquitin gene, (iv) the neomycin phosphotransferase gene (neo), (v) the IRES from encephalomyocarditis virus (EMCV), and (vi) HCV NS3 to NS5B genes that harbor cell culture adaptive mutations (E1202G, T12801, K1846T) and the HCV 3′UTR.
Since clinical drug resistance often develops in viral infections following single agent therapies, there is a need to assess the additive, antagonistic, or synergistic properties of combination therapies. We used the HCV replicon system to assess the potential use of our NS5A inhibitors in combination therapies with Interferon alpha, cyclosporine analogs and inhibitors targeting other HCV proteins. The acute effects of combinations of drugs were studied in the “Huh-luc/neo-ET” replicon with each chemical agent titrated in an X or Y direction in a 6 point two-fold dilution curve centered around the EC50 of each drug. Briefly, replicon cells were seeded at 7,000 cells per well in 90 ul DMEM (without phenol red, Invitrogen Cat. #31053-036) per well with 10% FCS, 1% non-essential amino acids, 1% of Glutamax and 1% of 100× penicillin/streptomycin and incubated overnight at 37° C., 5% C02, 100% relative humidity. 16-20 h after seeding cells, test compounds previously solubilized and titrated in dimethyl sulfoxide (“DMSO”) from each X plate and Y plate were diluted 1:100 in DMEM (without phenol red, Invitrogen Cat. #31053-036) with 10% FCS, 1% non-essential amino acids, 1% of Glutamax and 1% of 100× penicillin/streptomycin and added directly to the 96-well plate containing cells and growth medium at a 1:10 dilution for a final dilution of compound and DMSO of 1:1000 ([…] final concentration). Drug treated cells were incubated at 37° C., 5% C02, 100% relative humidity for 72 hours before performing a luciferase assay using 100 ul per well BriteLite Plus (Perkin Elmer) according to the manufacturer's instructions. Data analysis utilizes the method published by Prichard and Shipman (Antiviral Research, 1990. 14:181-205). Using this method, the combination data were analyzed for antagonistic, additive, or synergistic combination effects across the entire combination surface created by the diluted compounds in combination.
We used the HCV replicon system to assess the potential use of our NS5A inhibitor in combination therapies with Interferon alpha, cyclosporine analogs or inhibitors targeting other HCV proteins. Several HCV antivirals, including protease inhibitors (ITMN-191, SCH503034, VX-950), a nucleoside analog (such as those described in WO01/90121(A2), U.S. Pat. No. 6,348,587B1, WO01/60315 or WO01/32153), a nonnucleoside NS5B polymerase inhibitor (GSK625433), a cyclosporine analog, as well as Interferon alpha, are tested in combination with Compounds 90, 93 or 95 herein, inhibitors of HCV NS5A. Antivirals were tested at five concentrations each, diluted in DMSO by 2-fold dilutions. The antivirals were tested as monotherapies and in combination with Compounds 90, 93 or 95 (described herein) at various concentration ratios. […]

HCV 1b genotype replicon = test: HCV replicon drug screening assay (quantitative RT-PCR or luciferase), genotype 1b; assay type: cell-based; details: Hepatitis C virus; HCV 1b genotype replicon; quantitative RT-PCR or luciferase assay; read-out: Genotype-1b replicon EC50 Range
Method in brief: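 Huh-derived subgenomic genotype 1b replicon lines (SGR 11-7, neo; Huh-luc/neo-ET, firefly luciferase with adaptive mutations) grown at 37 °C. EC50 from HCV RNA by TaqMan one-step qRT-PCR normalised to GAPDH RNA. Cytotoxicity measured in parallel by MTS.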

[2] = in combination with Boceprevir (SCH503034)
[3] = in combination with Cyclosporine analog
[4] = in combination with Interferon-alpha
[5] = in combination with Telaprevir (VX-950)

SMILES | Bliss Volume (%) at 95% Confidence Intervals, Antagonism [1, 2] [%] | Bliss Volume (%) at 95% Confidence Intervals, Synergy [1, 2] [%] | Result (combination effect) [1, 2] | Synergy Score [1, 2] [%] | Bliss Volume (%) at 95% Confidence Intervals, Antagonism ([1]; in combination with GSK625433) [%] | Bliss Volume (%) at 95% Confidence Intervals, Synergy ([1]; in combination with GSK625433) [%] | Result (combination effect) ([1]; in combination with GSK625433) | Synergy Score ([1]; in combination with GSK625433) [%] | Bliss Volume (%) at 95% Confidence Intervals, Antagonism ([1]; in combination with ITMN-191) [%] | Bliss Volume (%) at 95% Confidence Intervals, Synergy ([1]; in combination with ITMN-191) [%] | Result (combination effect) ([1]; in combination with ITMN-191) | Synergy Score ([1]; in combination with ITMN-191) [%] | Bliss Volume (%) at 95% Confidence Intervals, Antagonism [1, 4] [%] | Bliss Volume (%) at 95% Confidence Intervals, Synergy [1, 4] [%] | Result (combination effect) [1, 4] | Synergy Score [1, 4] [%] | Bliss Volume (%) at 95% Confidence Intervals, Antagonism ([1]; in combination with R7128) [%] | Bliss Volume (%) at 95% Confidence Intervals, Synergy ([1]; in combination with R7128) [%] | Result (combination effect) ([1]; in combination with R7128) | EC50 (HCV 1b genotype replicon) [nM] | further results
COC(=O)N[C@H](C(=O)N1CCC[C@H]1c1ncc(-c2ccc(C#Cc3ccc4nc([C@@H]5CCCN5C(=O)[C@@H](NC(=O)OC)C(C)C)[nH]c4c3)cc2)[nH]1)C(C)C [Compound 90] | 0 | 48 | Synergistic | 48 | −1 | 12 | Additive | 11 | −9 | 2 | Additive | −7 | −14 | 6 | Additive | −8 | 0 | 34 | Synergistic | < 1 | Bliss Volume (%) at 95% Confidence Intervals, Antagonism [1, 3]: 0%; Bliss Volume (%) at 95% Confidence Intervals, Synergy [1, 3]: 0%; Result (combination effect) [1, 3]: Additive; Synergy Score [1, 3]: 0%; Synergy Score ([1]; in combination with R7128): 34%; Bliss Volume (%) at 95% Confidence Intervals, Antagonism [1, 5]: −1%; Bliss Volume (%) at 95% Confidence Intervals, Synergy [1, 5]: 0%; Result (combination effect) [1, 5]: Additive; Synergy Score [1, 5]: −1%
COC(=O)N[C@H](C(=O)N1CCC[C@H]1c1nc(-c2ccc(C#Cc3ccc4[nH]c([C@@H]5CC6(CC6)CN5C(=O)[C@@H](NC(=O)OC)C(C)C)nc4c3)cc2)c[nH]1)C(C)C [Compound 93] | 0 | 63 | Synergistic | 63 | 0 | 113 | Synergistic | 113 | 0 | 14 | Additive | 14 | 0 | 38 | Synergistic | 38 | 0 | 14 | Additive | < 1 | Synergy Score ([1]; in combination with R7128): 14%; Bliss Volume (%) at 95% Confidence Intervals, Antagonism [1, 5]: 0%; Bliss Volume (%) at 95% Confidence Intervals, Synergy [1, 5]: 7%; Result (combination effect) [1, 5]: Additive; Synergy Score [1, 5]: 7%
COC(=O)N[C@H](C(=O)N1CC2(CC2)C[C@H]1c1nc(-c2ccc(C#Cc3ccc4[nH]c([C@@H]5CC6(CC6)CN5C(=O)[C@@H](NC(=O)OC)C(C)C)nc4c3)cc2)c[nH]1)C(C)C [Compound 95] | 0 | 44 | Synergistic | 44 | 0 | 0 | Additive | 0 | 0 | 5 | Additive | 5 | −2 | 0 | Additive | −2 | 0 | 28 | Synergistic | < 1 | Synergy Score ([1]; in combination with R7128): 28%; Bliss Volume (%) at 95% Confidence Intervals, Antagonism [1, 5]: 0%; Bliss Volume (%) at 95% Confidence Intervals, Synergy [1, 5]: 5%; Result (combination effect) [1, 5]: Additive; Synergy Score [1, 5]: 5%
COC(=O)N[C@@H](C(=O)N1CCC[C@H]1c1ncc(C(=O)N[C@H]2CC[C@H](NC(=O)c3cnc([C@@H]4CCCN4C(=O)[C@H](NC(=O)OC)c4ccccc4)[nH]3)CC2)[nH]1)c1ccccc1 [Compound 120] |  |  |  |  |  |  |  |  |  |  |  |  |  |  |  |  |  |  |  | > 10 | 
COC(=O)N[C@H](C(=O)N1CCC[C@H]1c1nc(-c2ccc(-c3ccc(-c4ccc5[nH]c([C@@H]6[C@H]7CC[C@H](C7)N6C(=O)[C@@H](NC(=O)OC)C(C)C)nc5c4)cc3)cc2)c[nH]1)C(C)C [Compound 124] |  |  |  |  |  |  |  |  |  |  |  |  |  |  |  |  |  |  |  | < 1 | 
COC(=O)N[C@H](C(=O)N1CCC[C@H]1c1nc2cc(C#Cc3ccc(-c4c[nH]c([C@@H]5CCCN5C(=O)[C@H](NC(=O)OC)C(C)C)n4)cc3)ccc2[nH]1)C(C)C [Compound 88] |  |  |  |  |  |  |  |  |  |  |  |  |  |  |  |  |  |  |  | < 1 | 
COC(=O)N[C@H](C(=O)N1CCC[C@H]1c1ncc(-c2ccc(C#Cc3ccc4nc([C@@H]5CCCN5C(=O)[C@@H](NC(=O)OC)C(C)(C)C)[nH]c4c3)cc2)[nH]1)C(C)C [Compound 99] |  |  |  |  |  |  |  |  |  |  |  |  |  |  |  |  |  |  |  | < 1 | 
